From patent US20250248922A1, “METHOD OF PREPARING A MASTOCARPUS STELLATUS EXTRACT” (GIVAUDAN SA, priority 2022, published 2025)

Test system: human mature adipocytes
Assay: Lipolytic activity: glycerol release by 3D culture of human mature adipocytes
Assay type: cell-based
Conditions: 72 h of treatment, extract 0.5%
Protocol: Mature adipocytes were isolated from subcutaneous adipose tissue after digestion by collagenase. The isolated adipocytes were washed with a wash buffer and encapsulated in a peptidic hydrogel to form 3D adipocytes capsules of 25 μl in size. The formation of adipocytes capsules followed an internal standardized protocol to have about the same number of adipocytes between the capsules. Cells were then incubated for 24 h at 37° C. for stabilization. Treatments with Mastocarpus stellatus extract at 0.5% were initiated at D0 with a medium change; and the culture media were changed every day until 4 days of culture. At each culture media change, the cells secretions were collected, centrifuged and frozen at-80° C. for further analysis. Each culture condition was done in triplicate. The culture media after 72 h of treatment were collected. The concentrations of adiponectin and glycerol were evaluated by ELISA and colorimetric assays, respectively, using specific kits according to the manufacture's recommendations (adiponectin kit, Duoset, DY1065, R&D Systems; Glycerol kit, Randox, GY105).

## CC(C)NCC(O)c1ccc(O)c(O)c1 (centres unmarked) [Isoproterenol]
Isoproterenol 1 μM (positive control)
  Glycerol release (% of untreated), average: 295.6 % of untreated
Isoproterenol 1 μM, vs untreated
  increase of glycerol release: +196%
